# Measurements from PMC11494886, “Discovery and design of molecular glue enhancers of CDK12–DDB1 interactions for targeted degradation of cyclin K” (RSC Chemical Biology, 2024).
# Like-named read-outs stand apart in the source and are kept apart here.
# How the values were obtained:
# [1] = molecular target: T1, Cdk12/CycK and DDB1ΔB (Homo sapiens, UniProt Q16531+Q9NYV4, DEL396-705); assay: Dynamic light scattering of SEC peak fractions; assay type: binding; conditions: SEC peak middle fractions, vs negative controls
# T1 construct: the Cdk12 (714–1063)/CycK (1–267) complex and the DDB1ΔB protein; made in house; host or cells: Sf9 insect cells (MultiBacTurbo)
# T1 sequence (Q9NYV4 714-1063, stated change not applied): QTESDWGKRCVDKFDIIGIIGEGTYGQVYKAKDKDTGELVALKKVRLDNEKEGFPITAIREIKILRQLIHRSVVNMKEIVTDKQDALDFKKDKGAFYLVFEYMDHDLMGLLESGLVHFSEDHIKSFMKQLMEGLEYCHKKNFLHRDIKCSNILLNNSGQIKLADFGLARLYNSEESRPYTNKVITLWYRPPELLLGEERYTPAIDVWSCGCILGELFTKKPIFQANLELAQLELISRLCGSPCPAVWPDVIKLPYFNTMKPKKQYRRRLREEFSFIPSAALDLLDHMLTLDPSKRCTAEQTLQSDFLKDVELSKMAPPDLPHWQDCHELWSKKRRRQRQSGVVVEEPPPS
# T1 sequence (O75909 1-267 partner limits assumed): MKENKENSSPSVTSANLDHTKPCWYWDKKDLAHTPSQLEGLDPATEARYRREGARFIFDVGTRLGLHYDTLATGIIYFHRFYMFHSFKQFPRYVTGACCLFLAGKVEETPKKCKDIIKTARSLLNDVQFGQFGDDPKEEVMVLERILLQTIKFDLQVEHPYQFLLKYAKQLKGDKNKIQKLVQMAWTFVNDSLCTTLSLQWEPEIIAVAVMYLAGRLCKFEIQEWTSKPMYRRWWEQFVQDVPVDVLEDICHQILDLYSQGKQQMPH
# T1 sequence (Q16531 with tags, fused parts or gaps DEL396-705): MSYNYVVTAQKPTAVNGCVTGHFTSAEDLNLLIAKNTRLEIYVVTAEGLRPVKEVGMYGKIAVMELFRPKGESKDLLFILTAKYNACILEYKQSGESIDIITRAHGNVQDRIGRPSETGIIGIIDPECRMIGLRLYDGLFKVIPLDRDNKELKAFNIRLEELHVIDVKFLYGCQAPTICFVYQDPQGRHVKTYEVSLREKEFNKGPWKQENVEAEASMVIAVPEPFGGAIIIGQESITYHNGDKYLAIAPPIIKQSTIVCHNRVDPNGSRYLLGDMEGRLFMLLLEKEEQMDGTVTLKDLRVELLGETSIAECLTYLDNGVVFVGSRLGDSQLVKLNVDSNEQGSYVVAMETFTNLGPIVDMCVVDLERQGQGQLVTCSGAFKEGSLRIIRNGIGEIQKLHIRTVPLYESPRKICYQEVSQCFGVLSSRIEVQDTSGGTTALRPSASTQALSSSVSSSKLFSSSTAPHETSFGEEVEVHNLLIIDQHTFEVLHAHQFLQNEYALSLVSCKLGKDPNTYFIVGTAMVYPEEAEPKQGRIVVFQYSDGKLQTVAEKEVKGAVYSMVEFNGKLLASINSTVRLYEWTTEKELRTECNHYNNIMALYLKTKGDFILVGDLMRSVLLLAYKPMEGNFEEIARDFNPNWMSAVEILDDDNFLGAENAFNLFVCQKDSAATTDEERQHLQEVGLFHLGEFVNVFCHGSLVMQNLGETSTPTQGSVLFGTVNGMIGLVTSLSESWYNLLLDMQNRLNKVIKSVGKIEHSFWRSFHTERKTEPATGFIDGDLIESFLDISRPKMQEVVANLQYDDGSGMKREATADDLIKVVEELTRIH
# Description: To evaluate particle size distribution in liquid solution, dynamic light scattering was employed. Specifically, 10 μL fractions from the central region of peaks obtained in analytical size exclusion chromatography runs were analyzed. This analysis was performed using a DynaPro NanoStar 672 (Wyatt Technology) in a disposable DLS MicroCuvette (Wyatt Technology), while maintaining a constant temperature of 25 °C. Each measurement was conducted with an acquisition time of 3 s, and each data point depicted in the Results section represents the average of 20 individual DLS measurements. The hydrodynamic radius of the protein samples was determined using the processing and analysis software DYNAMICS.
# [2] = molecular target: T1, Cdk12/CycK and DDB1ΔB; assay: GST pulldown assay, recruitment of DDB1ΔB to Cdk12/CycK; assay type: binding; conditions: GST-Cdk12/GST-CycK bait, 5 μM compound, vs DMSO
# Description: The pulldown assay was utilized to identify drug-triggered protein–protein interactions involving the Cdk12 (714–1063)/CycK (1–267) complex and the DDB1ΔB protein. In this assay, purified GST-tagged Cdk12 construct complexed with GST-CycK was combined with equimolar amounts of His6-tagged DDB1ΔB (5 μM) in the presence of 5 μM of the respective small molecular compound in pulldown assay buffer (50 mM Hepes pH 7.4, 200 mM NaCl, 0.25 mM TCEP, 0.05% (v/v) Tween20), ensuring a 2% total DMSO concentration. Experimental controls included samples supplemented with 2% DMSO instead of compound as well as samples devoid of the GST-tagged Cdk12/CycK complex. Each sample was individually added to approximately 50 μL of pre-equilibrated glutathione agarose beads (Thermo Fisher Scientific). The bead suspensions were then subjected to a 2 h incubation period at room temperature with gentle agitation. After incubation, the beads were pelleted by centrifugation at 700 × g for 4 min, the supernatant was discarded, and the beads were washed three-times with 100 μL of pulldown assay buffer. Following the washing step, bound proteins were eluted from the beads with 50 μL of pulldown assay buffer supplemented with 10 mM GSH for 1 h at room temperature under rotation. Subsequently, the beads were again pelleted by centrifugation at 700 × g for 4 min and the resulting supernatants containing eluted protein fractions were mixed with 6 × SDS sample buffer at a 1 : 1 (v/v) ratio. The eluted protein samples were separated by SDS-PAGE and subjected to Coomassie brilliant blue staining for visualization and analysis.
# [3] = molecular target: T1, Cdk12/CycK and DDB1ΔB; assay: Analytical size-exclusion chromatography of DDB1ΔB and Cdk12/CycK; assay type: binding; conditions: 20 μM proteins, 60 μM compound, vs DMSO and THZ531
# Description: Analytical size-exclusion chromatography was employed to investigate compound-induced protein–protein interactions between the heterodimeric Cdk12 (714–1063)/CycK (1–267) complex and the RING E3 ligase-associated adaptor protein DDB1ΔB. The analysis was conducted on an Agilent 1260 Infinity II HPLC system (Agilent Technologies), coupled with a Superdex 200 Increase 3.2/300 column (Cytiva), pre-equilibrated in Cdk12 SEC buffer (20 mM Hepes pH 7.8, 400 mM NaCl, 1 mM TCEP) supplemented with 1 g L^−1 carboxymethyl-dextran. Purified proteins, combined in equimolar ratios (20 μM Cdk12/CycK and DDB1ΔB, respectively) were supplemented with 3-fold molar excess of small molecular compounds. The resulting protein mixtures were diluted to a final volume of 25 μL using the kinases SEC-buffer ensuring a final DMSO concentration of 2%, followed by an incubation period of 10 min. Upon injection into the analytical system, the chromatography was conducted at a controlled flow rate of 0.05 mL min^−1, with protein absorbance monitored at 280 nm wavelength. Peak fractions were collected drop by drop and subsequently subjected to analysis via dynamic light scattering (DLS) to assess their size distribution, along with SDS-PAGE analysis to determine the composition of the protein complex.
# [4] = molecular target: T2, CDK12/cyclin K + DDB1 (Homo sapiens, UniProt Q16531+Q9NYV4, DEL396-705); assay: Microscale thermophoresis, ternary complex formation; assay type: binding; conditions: MST
# T2 construct: The kinase domain of human CDK12 (Uniprot: Q9NYV4; a.a; 715–1050); GST (N, cleaved yes); made in house; host or cells: Spodoptera frugiperda SF9 insect cells (Bac-to-Bac); CDK12/cyclin K co-infected with S. cerevisiae CAK1
# T2 sequence (Q16531 with tags, fused parts or gaps DEL396-705): as above
# T2 sequence (Q9NYV4 715-1050, stated change not applied): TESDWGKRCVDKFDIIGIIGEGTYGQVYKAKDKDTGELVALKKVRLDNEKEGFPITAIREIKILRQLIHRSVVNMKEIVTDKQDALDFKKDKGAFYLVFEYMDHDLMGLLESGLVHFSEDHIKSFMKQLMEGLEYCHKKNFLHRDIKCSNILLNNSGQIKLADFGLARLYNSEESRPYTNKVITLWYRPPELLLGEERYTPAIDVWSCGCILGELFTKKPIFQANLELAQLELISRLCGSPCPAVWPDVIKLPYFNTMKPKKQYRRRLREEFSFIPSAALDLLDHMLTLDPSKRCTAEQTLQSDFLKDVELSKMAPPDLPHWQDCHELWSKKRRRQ
# T2 sequence (O75909 11-267 partner limits assumed): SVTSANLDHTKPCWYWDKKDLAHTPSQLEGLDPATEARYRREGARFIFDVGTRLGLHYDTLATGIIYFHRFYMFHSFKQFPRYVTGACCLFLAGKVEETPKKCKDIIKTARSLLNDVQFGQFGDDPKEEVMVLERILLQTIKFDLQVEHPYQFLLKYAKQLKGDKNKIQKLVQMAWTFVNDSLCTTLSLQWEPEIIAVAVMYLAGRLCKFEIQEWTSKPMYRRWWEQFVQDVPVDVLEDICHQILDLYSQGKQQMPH
# Description: Finally, the capacity of small molecules to induce a ternary complex between CDK12/cyclin K and DDB1 in vitro was assessed by microscale thermophoresis (MST). Labeled DDB1ΔBPB was combined with purified CDK12/cyclin K, and fluorescence intensity was monitored with increasing compound concentrations.
# Cell pellets were harvested 48 hours post infection via centrifugation and lysed in buffer A (50 mM Tris–HCl (pH 8.0), 200 mM NaCl, 10 mM imidazole, 0.5 mM tris(2-carboxyethyl) phosphine (TCEP)) supplemented with EDTA-free Pierce™ protease inhibitor tablet (Thermo Fisher Scientific). […] The concentrated protein at 2 mg mL^−1 was flash-frozen in liquid nitrogen and stored at −80 °C.
# Full-length S. cerevisiae CAK1 (Uniprot: P43568) with an N-terminal His6 tag was subcloned into pFastBac 1 vector. […] The eluted CDK12/cyclin K complex was concentrated to 2 mg mL^−1, flash-frozen in liquid nitrogen and stored at −80 °C.
# A protocol to assess ternary binding of molecular glues with CDK12/cycK and DDB1 by MST was established using published procedures for PROTAC interaction with bromodomains and E3 ubiquitin ligases.[38] His8-DDB1-ΔBPB was labeled with the MO-L018 Monolith™ His-tag Labeling Kit RED-tris-NTA 2nd Generation (NanoTemper Technologies) following the instruction manual. 100 nM dye was mixed with 200 nM DDB1 in 50 mM HEPES pH 7.5, 150 mM NaCl, 5% glycerol, 0.05% Tween, and incubated at room temperature for 30 min. […] MST traces were recorded using standard parameters: 5 s MST power off, 30 s MST power on and 5 s MST power off. Measurements were taken at −1 to 0 s (cold region) and 9–10 s (hot region). Data were analyzed using a fitting function derived from the law of mass action:1 [drawing 6] where f(c) is the fluorescence signal (Fnorm) at a given ligand concentration (c), B is Fnorm of fully liganded DDB1 at high ligand concentrations, U is Fnorm of DDB1 alone at low ligand concentrations, Kd is the dissociation constant or binding affinity, cT is the final concentration of DDB1 in the assay (Fig. 3G). For normalization, the data were first transformed using eqn (2) where y is the fraction bound, followed by fitting to eqn (3) (Fig. 5B–E).2 [drawing 7] 3 [drawing 8]
# [5] = system: HiBiT-tagged cyclin K; assay: HiBiT cyclin K degradation assay (DC50, Dmax); assay type: cell-based; conditions: HiBiT-CCNK KI A549 cells, 2 hours, vs DMSO
# Description: Next, we utilized HiBiT technology (Promega) for quantitative analysis of cyclin K degrader activity. […] Importantly, knockout of CDK12 using CRISPR/Cas9 protected cyclin K from SR-4835-induced degradation (Fig. 1D). We verified the depletion of CDK12 in HEK-293T cells (Fig. S3, ESI ^†).
# The HiBiT-CCNK KI A549 cells (Promega) were seeded in 384 well plate and treated with the test compounds for 2 hours in a dose dependent manner. Nano-Glo® HiBiT Lytic Detection System (Promega) composed of the Nano-Glo® HiBiT Lytic Substrate, Nano-Glo® HiBiT Lytic Buffer and LgBiT Protein was used as per the manufacturer's instructions. Briefly, a 2× Nano-Glo® HiBiT Lytic Detection Reagent mixture was prepared by adding 20 μL of Nano-Glo® HiBiT Lytic Substrate and 10 μL of LgBiT protein per every 1 mL of Nano-Glo® HiBiT Lytic Buffer. After incubating the cells with the 2× Nano-Glo® HiBiT Lytic Detection Reagent mixture, luminescence was measured. HiBiT tagged cyclin K present at any given concentration was measured by normalizing the luminescence signal at that concentration to the luminescence signal from the DMSO (control) cells. The concentration necessary to achieve a 50% reduction in cyclin K levels (DC50) and the maximum achievable reduction in cyclin K levels (Dmax) was computed from this assay.
# [6] = molecular target: CDK12 (Homo sapiens, UniProt Q9NYV4); assay: CDK12 functional (kinase inhibition) assay; assay type: biochemical; conditions: vs MR-1187
# CDK12, sequence (Q9NYV4 whole entry): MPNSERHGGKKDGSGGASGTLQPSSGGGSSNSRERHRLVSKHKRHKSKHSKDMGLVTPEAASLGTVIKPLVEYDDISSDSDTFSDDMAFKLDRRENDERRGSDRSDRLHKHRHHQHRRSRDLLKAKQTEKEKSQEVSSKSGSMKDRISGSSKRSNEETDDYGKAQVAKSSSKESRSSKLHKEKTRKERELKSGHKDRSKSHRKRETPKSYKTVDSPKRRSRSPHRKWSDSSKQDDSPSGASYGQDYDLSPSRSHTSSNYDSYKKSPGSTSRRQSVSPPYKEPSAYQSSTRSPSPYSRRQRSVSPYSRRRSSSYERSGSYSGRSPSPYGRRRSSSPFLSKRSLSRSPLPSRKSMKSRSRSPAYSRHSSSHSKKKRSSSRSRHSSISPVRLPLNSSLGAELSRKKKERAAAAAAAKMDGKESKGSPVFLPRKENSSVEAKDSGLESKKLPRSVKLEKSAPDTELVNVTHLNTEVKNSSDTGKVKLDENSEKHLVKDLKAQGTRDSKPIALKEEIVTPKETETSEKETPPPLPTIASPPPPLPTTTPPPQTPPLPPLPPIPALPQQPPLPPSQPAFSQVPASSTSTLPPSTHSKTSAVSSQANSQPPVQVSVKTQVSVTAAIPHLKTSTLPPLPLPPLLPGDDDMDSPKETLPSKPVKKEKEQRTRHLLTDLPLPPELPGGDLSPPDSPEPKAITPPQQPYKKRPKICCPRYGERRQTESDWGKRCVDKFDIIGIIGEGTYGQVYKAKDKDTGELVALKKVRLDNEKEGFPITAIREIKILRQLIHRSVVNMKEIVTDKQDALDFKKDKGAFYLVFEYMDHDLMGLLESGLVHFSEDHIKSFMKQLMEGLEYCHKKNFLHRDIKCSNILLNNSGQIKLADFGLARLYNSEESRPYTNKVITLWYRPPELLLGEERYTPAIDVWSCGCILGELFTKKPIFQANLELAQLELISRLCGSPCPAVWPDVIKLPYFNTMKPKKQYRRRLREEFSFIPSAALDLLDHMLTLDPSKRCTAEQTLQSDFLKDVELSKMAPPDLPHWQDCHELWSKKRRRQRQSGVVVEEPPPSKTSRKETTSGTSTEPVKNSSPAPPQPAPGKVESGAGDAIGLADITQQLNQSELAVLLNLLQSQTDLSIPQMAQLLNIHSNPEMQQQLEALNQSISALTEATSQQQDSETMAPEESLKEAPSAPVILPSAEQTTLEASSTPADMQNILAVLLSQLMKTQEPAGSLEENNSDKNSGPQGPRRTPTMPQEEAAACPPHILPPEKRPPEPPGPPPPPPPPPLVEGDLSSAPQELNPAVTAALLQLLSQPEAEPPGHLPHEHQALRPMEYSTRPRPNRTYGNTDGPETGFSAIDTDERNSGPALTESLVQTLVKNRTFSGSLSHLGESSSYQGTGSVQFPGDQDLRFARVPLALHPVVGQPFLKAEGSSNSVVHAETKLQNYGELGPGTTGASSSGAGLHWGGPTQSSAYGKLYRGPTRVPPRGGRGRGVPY
# CDK12, sequence (O75909 whole entry partner): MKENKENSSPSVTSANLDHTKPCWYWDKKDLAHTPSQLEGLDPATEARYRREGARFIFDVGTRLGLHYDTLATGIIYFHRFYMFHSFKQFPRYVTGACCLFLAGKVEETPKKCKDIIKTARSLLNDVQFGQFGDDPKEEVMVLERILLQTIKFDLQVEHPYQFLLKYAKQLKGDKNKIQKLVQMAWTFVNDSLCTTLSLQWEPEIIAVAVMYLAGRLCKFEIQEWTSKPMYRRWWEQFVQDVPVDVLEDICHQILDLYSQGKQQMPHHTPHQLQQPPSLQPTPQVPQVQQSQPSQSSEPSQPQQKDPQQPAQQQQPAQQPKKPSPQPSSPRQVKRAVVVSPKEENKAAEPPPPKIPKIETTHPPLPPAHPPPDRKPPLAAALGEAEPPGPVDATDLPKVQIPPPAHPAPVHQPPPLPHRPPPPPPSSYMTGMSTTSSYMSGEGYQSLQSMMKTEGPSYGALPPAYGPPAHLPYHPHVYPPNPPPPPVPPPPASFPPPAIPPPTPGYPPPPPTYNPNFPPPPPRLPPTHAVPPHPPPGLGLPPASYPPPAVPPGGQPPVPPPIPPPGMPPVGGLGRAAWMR
# [7] = system: cyclin K; assay: Immunofluorescence of nuclear cyclin K in MDA-MB-231 cells; assay type: cell-based, human; conditions: MDA-MB-231 cells, 0.5 µM, 2 h
# Description: Cells were fixed with 4% PFA in PBS at room temperature, permeabilized with 0.1% Triton X-100 in PBS, and blocked with 3% BSA in PBS at room temperature. Cells were incubated with primary antibodies overnight at 4 °C, followed by incubation with Alexa-Fluor conjugated secondary antibodies for 1 hour at room temperature. Cell nuclei were stained using DAPI. Images were acquired on a confocal microscope (Leica). ImageJ and QuPath were used for image analysis.
# Figure S8. Immunofluorescence staining for cyclin K degradation. MDA-MB-231 cells were
# treated for 2 h with either DMSO or the indicated compounds (0.5 µM) . Cells were fixed and
# Nuclei were stained with DAPI (blue). […]
SMILES,hydrodynamic radius (DLS) [1],recruitment of DDB1ΔB in pulldown [2],retention time in analytical SEC (ternary complex formation) [3],"Kd ([4]; labeled DDB1 + CDK12/cyclin K, run #1, read-out: Kd ternary complex formation, replicate #1) [nM]","Kd ([4]; labeled DDB1 + CDK12/cyclin K, run #2, read-out: Kd ternary complex formation, replicate #2) [nM]","Kd ([4]; labeled DDB1 + CDK12/cyclin K, run #3, read-out: Kd ternary complex formation, replicate #3) [nM]","Kd ([4]; labeled DDB1ΔBPB 10 nM + CDK12/cyclin K 1000 nM, mean of replicates, read-out: Kd ternary complex formation (average)) [nM]",Dmax (maximum reduction in cyclin K levels) [5] [%],fold better CDK12 kinase inhibition compared to MR-1187 [6] [fold],cyclin K nuclear intensity compared to control [7]
"CC[C@H](CO)Nc1nc(NCc2ccc(-c3ccccn3)cc2)c2ncn(C(C)C)c2n1 [CR8, reference compound]",significantly increased,enrichment of DDB1ΔB fractions,reduced retention times,,,,,,,
"CCc1cnn2c(NCc3nc4cc(Cl)c(Cl)cc4[nH]3)cc(N3CCCC[C@H]3CCO)nc12 [MR-1226, (S)-2-(1-(7-(((5,6-Dichloro-1H-benzo[d]imidazol-2-yl)methyl)amino)-3-ethylpyrazolo[1,5-a]pyrimidin-5-yl)piperidin-2-yl)ethan-1-ol]",,,,8.7 ± 2.7,10.3 ± 4,9.6 ± 3.3,9.5,> 95,35,reduced
